We go through two compounds from PubChem BioAssay (NCI).

Some test systems named below: CAKI-1 renal; DU-145 prostate; EKVX NSCLC; HS 578T breast; MDA-MB-435; MDA-N; NCI/ADR-RES ovarian; OVCAR-4 ovarian; PC-3 prostate; RXF 393 renal; HCT-116 colon; NCI-H23 lung; NCI-H460 lung; OVCAR-8 ovarian; SF-268 CNS; SK-MEL-28 melanoma; SNB-75 CNS; SW-620 colon.
Holding throughout (assay): growth of human tumour cells (NCI), 48 h

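Method: 48-hour compound exposure of cells in 96-well plates, five concentrations, linear interpolation of endpoints. TGI marks complete inhibition of growth.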

With `Nc1ccc(Oc2ccc(C3(c4ccc(Oc5ccc(N)c(O)c5)cc4)C4CC5CC(C4)CC3C5)cc2)cc1O`, the TGI is 5.03 µM with CAKI-1 renal; 3.68 µM in the assay with DU-145 prostate; 6.16 µM in the assay on EKVX NSCLC; 5.32 µM with HS 578T breast; 5.22 µM in the assay with MDA-MB-435; 4.75 µM in the assay on MDA-N. Moreover, the TGI in the assay with NCI/ADR-RES ovarian was 5.91 µM; in the assay on OVCAR-4 ovarian it was 24.9 µM; in the assay with PC-3 prostate, 3.18 µM; in the assay with RXF 393 renal it was 4.51 µM.

Regarding `CCOC(=O)/C(C#N)=c1/s/c(=C(\O)N/N=C/c2ccc(OC)cc2)c(=N)n1-c1ccccc1`, the TGI in the assay on HCT-116 colon, in the assay on NCI-H23 lung, in the assay on NCI-H460 lung, in the assay on OVCAR-8 ovarian, in the assay on SF-268 CNS and with SK-MEL-28 melanoma was above 100 µM throughout. Moreover, the TGI is 27.2 µM with SNB-75 CNS and above 100 µM in the assay with SW-620 colon.
